# Activity calls are given as the source filed them.
# Experiments:
# [1] = molecular target: T1, Sentrin-specific protease 8 (Homo sapiens, UniProt Q96LD8); test: SENP8 protease inhibitors, SAR follow-up, biochemical, luminescence (AID 504501); assay type: functional
# T1 sequence (Q96LD8 whole entry): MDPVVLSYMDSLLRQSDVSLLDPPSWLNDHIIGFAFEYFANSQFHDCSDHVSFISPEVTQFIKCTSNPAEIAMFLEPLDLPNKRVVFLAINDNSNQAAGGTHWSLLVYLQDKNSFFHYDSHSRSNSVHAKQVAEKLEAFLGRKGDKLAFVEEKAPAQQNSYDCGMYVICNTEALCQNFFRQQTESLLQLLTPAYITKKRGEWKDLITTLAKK
# Caspase-3 = molecular target: T2, Caspase-3 (Homo sapiens, UniProt P42574); test: SAR Analysis of small molecule inhibitors of Sentrin-specific proteases (SENPs) using a Caspase-3 Selectivity assay. [Related pubchem assays (depositor defined):AID2540, AID2599, AID434973, AID489001]; assay type: functional
# T2 sequence (P42574 whole entry): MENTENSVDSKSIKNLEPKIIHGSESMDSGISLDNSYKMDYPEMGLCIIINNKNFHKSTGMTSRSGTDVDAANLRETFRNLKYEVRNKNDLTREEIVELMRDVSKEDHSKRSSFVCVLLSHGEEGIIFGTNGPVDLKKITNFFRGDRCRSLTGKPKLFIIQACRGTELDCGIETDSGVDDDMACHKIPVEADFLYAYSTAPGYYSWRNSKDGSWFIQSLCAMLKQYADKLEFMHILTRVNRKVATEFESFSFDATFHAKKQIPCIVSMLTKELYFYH
# [2] = molecular target: T3, Sentrin-specific protease 6 (Homo sapiens, UniProt Q9GZR1); test: SAR Analysis of small molecule inhibitors of Sentrin-specific protease 6 (SENP6) using a Luminescent assay. [Related pubchem assays (depositor defined):AID2582, AID2599]; assay type: functional
# T3 sequence (Q9GZR1 whole entry): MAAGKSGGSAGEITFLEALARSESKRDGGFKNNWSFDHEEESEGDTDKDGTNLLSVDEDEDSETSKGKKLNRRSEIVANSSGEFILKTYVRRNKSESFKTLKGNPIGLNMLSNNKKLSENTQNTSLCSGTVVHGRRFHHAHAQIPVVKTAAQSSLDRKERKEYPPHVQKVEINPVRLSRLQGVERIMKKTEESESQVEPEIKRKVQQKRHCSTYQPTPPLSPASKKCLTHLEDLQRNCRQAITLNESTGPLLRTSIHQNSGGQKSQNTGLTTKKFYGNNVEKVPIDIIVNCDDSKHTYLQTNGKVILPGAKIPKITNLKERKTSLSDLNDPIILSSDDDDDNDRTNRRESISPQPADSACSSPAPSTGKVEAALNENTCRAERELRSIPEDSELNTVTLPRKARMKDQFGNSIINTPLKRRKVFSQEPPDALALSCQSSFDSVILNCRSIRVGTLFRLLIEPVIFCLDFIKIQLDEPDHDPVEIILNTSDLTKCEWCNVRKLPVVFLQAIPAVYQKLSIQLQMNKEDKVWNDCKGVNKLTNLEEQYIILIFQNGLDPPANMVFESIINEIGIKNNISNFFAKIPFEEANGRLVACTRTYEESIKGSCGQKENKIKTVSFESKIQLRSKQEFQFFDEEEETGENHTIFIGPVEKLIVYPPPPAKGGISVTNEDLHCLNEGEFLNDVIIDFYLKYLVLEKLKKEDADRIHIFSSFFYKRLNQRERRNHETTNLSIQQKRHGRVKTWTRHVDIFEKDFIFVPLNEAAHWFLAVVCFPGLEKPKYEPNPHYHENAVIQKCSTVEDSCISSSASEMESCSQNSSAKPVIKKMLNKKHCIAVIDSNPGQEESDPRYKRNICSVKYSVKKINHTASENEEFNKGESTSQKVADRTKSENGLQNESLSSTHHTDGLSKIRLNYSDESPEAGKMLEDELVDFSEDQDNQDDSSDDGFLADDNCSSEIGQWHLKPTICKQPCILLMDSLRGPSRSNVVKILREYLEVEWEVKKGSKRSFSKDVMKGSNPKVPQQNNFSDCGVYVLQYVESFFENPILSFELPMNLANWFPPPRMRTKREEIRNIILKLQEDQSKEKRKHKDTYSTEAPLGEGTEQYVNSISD
# HEK293 = test: inhibitors of LMP1-driven NF-kB reporter, dose response, cell-based, HEK293, luciferase, cherry-pick (AID 588343); assay type: functional; conditions: Homo sapiens
# Interleukin-8 [3] = molecular target: T4, Interleukin-8 (Homo sapiens, UniProt P10145); test: Dose Response confirmation of uHTS small molecule hits for cystic fibrosis induced NFkb Inhibitors in a TNFa-induced IL8 counterscreen.; assay type: functional; conditions: read-out: IC50_Mean
# T4 sequence (P10145 whole entry): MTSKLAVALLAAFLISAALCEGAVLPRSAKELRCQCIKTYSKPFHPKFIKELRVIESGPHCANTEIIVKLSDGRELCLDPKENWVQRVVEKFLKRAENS
# Interleukin-8 [4] = molecular target: T4, Interleukin-8; test: Dose Response confirmation of uHTS small molecule hits for cystic fibrosis induced NFkb Inhibitors in a PAF-induced IL8 counterscreen.; assay type: functional; conditions: read-out: IC50_Mean
# Nonstructural protein 1 = Nonstructural protein 1 (Influenza A virus, UniProt Q194T2); assay type: functional, Influenza A virus (A/California/07/2009(H1N1))
# Nonstructural protein 1, sequence (Q194T2 whole entry): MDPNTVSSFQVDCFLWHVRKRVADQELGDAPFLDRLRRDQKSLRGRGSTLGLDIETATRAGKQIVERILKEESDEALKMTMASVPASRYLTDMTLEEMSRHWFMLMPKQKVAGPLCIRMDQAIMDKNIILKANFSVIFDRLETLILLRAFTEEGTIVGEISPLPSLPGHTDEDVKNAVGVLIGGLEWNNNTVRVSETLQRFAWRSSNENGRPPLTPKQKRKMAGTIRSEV
# [5] = AlphaScreen signal interference compounds, dose response, artefact control for ARNT-TACC3 interaction inhibitor project, biochemical, luminescence, cherry-pick (AID 651705); assay type: functional;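 note: AlphaScreen bead proximity signal that flags compounds interfering with the detection technology; potency reflects signal decrease which marks the compound as an assay artifact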
# [6] = molecular target: T5, RNA-binding protein pos-1 (Caenorhabditis elegans, UniProt G5EF15); test: inhibitors of POS-1/mex-3 RNA binding, dose response, biochemical, fluorescence polarization (AID 1964);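 note: purified POS-1 fused to maltose binding protein made in E. coli; potency of compounds blocking POS-1 binding to fluorescent RNA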
# T5 sequence (G5EF15 whole entry): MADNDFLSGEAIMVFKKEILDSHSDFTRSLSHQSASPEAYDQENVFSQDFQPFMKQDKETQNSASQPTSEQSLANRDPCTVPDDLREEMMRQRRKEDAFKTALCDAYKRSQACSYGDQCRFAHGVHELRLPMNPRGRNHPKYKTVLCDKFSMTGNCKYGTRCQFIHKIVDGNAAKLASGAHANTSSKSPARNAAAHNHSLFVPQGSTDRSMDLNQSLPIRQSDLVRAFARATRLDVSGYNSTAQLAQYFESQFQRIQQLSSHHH
# [7] = molecular target: T6, Zinc finger protein mex-5 (Caenorhabditis elegans, UniProt Q9XUB2); test: MEX-5/TCR-2 RNA interaction inhibitors, dose response, biochemical, C. elegans, fluorescence polarization (AID 1960)
# T6 sequence (Q9XUB2 whole entry): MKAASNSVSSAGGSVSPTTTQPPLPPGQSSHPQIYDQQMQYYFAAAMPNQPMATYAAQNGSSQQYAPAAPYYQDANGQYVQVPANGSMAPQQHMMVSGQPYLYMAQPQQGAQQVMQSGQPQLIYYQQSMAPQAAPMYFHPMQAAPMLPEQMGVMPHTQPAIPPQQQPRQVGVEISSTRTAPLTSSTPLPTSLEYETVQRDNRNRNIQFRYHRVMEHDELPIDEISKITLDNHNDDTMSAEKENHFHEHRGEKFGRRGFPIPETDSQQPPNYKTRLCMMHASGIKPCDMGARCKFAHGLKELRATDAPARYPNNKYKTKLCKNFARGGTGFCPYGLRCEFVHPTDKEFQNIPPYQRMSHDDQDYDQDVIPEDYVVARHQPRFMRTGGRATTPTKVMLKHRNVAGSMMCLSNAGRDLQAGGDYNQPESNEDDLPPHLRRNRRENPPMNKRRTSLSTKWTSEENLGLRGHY
# Beta-galactosidase = Beta-galactosidase (Escherichia coli, UniProt Q8VNN2); test: PubChem AID 485352; assay type: functional
# Beta-galactosidase, sequence (Q8VNN2 whole entry): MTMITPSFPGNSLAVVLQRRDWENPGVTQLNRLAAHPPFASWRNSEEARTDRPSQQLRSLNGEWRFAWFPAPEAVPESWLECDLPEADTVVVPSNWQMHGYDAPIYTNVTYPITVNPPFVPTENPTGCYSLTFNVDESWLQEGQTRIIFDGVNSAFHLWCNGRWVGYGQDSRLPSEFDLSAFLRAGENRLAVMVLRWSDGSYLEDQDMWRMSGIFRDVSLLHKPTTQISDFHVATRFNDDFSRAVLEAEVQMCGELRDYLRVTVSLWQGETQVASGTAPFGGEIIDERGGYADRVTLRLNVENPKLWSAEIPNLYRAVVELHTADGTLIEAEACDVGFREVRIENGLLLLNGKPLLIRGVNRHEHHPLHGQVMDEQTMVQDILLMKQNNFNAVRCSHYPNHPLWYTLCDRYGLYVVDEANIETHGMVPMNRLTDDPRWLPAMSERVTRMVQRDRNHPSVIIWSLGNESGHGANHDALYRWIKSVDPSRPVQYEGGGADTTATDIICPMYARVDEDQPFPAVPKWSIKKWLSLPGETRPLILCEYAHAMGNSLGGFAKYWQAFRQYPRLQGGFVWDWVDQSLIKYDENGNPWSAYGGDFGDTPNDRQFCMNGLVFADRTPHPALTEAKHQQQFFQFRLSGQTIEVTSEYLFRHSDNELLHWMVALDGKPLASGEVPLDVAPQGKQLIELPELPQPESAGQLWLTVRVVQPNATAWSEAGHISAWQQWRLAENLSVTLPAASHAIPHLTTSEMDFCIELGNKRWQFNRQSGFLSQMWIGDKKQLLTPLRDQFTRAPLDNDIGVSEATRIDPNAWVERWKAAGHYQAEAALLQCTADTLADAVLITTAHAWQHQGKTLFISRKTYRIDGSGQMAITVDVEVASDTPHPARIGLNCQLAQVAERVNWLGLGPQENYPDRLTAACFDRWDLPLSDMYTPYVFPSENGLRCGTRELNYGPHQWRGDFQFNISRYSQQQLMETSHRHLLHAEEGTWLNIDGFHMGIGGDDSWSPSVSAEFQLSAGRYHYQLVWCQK
# [8] = molecular target: T7, Type-1 angiotensin II receptor (Homo sapiens, UniProt P30556); test: AT1 receptor antagonists, dose response, selectivity assay for APJ receptor antagonist project, cell-based, uHTS hits (AID 463214); assay type: functional;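 note: antagonist potency against angiotensin II stimulated AT1 response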
# T7 sequence (P30556 whole entry): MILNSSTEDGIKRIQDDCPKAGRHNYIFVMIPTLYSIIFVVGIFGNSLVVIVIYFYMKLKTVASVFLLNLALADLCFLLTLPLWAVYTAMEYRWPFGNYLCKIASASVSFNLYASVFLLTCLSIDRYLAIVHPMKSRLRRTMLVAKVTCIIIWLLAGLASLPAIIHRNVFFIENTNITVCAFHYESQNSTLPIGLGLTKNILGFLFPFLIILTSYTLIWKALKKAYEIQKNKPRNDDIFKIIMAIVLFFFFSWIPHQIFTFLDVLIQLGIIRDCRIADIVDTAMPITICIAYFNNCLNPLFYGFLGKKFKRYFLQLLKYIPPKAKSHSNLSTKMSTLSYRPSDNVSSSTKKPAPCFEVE
# [9] = A Cell Based Secondary Assay To Explore Cytotoxicity of Compounds that Sensitize Mycobacterium Tuberculosis to Beta-Lactam Antibiotics.; assay type: functional
# [10] = molecular target: T8, Endoribonuclease toxin MazF (Escherichia coli K-12, UniProt P0AE70); test: MazF toxin RNase activators, dose response, biochemical, fluorescence, single-stranded RNA substrate, uHTS hits (AID 588481); assay type: functional
# T8 sequence (P0AE70 whole entry): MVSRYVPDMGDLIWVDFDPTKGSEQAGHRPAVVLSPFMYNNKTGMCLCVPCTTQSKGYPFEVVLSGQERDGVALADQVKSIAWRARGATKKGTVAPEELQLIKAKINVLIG
# [11] = molecular target: T8, Endoribonuclease toxin MazF; test: fluorescent RNA oligo signal without MazF, dose response, counter-screen for MazEF activator project, biochemical, fluorescence, single-stranded RNase substrate (AID 588502); assay type: functional
# [12] = molecular target: Arf-GAP with SH3 domain, ANK repeat and PH domain-containing protein 1 (Homo sapiens, UniProt Q9ULH1); assay type: functional;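 note: biochemical fluorescence polarization dose–response screen measuring inhibition of ASAP1; ASAP1 GAP domain stimulating GTP hydrolysis by truncated human ARF1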
# Arf-GAP with SH3 domain, ANK repeat and PH domain-containing protein 1, sequence (Q9ULH1 whole entry, the tested form may be a part): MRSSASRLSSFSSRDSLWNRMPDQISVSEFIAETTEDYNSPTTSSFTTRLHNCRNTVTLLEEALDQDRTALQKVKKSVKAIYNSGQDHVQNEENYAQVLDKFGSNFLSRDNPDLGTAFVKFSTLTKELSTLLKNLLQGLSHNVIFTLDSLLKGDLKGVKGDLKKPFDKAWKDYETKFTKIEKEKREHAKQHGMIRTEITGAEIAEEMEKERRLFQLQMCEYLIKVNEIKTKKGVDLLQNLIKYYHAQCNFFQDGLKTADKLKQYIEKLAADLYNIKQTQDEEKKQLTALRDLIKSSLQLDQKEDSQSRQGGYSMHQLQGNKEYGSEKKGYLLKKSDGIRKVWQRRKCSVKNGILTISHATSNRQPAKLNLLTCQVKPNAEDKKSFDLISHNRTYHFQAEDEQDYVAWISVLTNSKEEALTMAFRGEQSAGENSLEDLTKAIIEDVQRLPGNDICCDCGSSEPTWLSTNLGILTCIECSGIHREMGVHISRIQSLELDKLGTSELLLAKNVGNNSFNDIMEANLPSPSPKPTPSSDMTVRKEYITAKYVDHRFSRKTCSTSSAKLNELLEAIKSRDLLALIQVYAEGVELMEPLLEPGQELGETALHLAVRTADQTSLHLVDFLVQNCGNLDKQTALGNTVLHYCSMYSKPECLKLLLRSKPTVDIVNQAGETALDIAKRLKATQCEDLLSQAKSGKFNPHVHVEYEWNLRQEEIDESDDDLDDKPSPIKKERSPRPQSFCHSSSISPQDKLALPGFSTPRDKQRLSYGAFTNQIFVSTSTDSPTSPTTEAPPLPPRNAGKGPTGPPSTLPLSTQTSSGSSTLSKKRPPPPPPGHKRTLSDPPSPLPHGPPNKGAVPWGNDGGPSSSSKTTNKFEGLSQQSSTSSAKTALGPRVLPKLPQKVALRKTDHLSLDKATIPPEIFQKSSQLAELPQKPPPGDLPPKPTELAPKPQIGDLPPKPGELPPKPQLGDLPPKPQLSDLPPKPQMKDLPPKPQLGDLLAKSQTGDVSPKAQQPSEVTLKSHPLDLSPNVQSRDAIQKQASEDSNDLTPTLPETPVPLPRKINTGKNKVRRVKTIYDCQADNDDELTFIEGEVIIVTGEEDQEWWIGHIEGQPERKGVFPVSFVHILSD
# Cytochrome P450 1A2 = molecular target: T9, Cytochrome P450 1A2 (Homo sapiens, UniProt P05177);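 note: PubChem cytochrome P450 panel assay, CYP1A2 panel member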
# T9 sequence (P05177 whole entry): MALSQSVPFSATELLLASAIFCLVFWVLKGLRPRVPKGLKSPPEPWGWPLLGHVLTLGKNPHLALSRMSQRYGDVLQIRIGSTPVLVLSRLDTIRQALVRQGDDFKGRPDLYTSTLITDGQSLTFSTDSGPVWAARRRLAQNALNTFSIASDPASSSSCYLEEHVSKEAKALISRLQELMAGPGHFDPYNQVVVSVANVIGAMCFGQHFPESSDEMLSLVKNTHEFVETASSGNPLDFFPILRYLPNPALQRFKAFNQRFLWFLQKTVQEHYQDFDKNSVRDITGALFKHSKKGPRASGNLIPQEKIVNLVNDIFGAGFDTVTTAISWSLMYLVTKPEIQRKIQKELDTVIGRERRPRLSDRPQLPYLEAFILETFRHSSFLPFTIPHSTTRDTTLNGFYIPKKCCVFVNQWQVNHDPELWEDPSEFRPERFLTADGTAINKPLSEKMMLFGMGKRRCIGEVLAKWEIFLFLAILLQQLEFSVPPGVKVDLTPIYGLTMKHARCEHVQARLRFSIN
# [13] = molecular target: Adenosylmethionine-8-amino-7-oxononanoate aminotransferase (Mycobacterium tuberculosis, UniProt P9WQ81); test: Mycobacterium tuberculosis BioA enzyme inhibitor Measured in Biochemical System Using Plate Reader - 2163-02_Inhibitor_Dose_CherryPick_Activity.; assay type: functional, Mycobacterium tuberculosis UT205
# Adenosylmethionine-8-amino-7-oxononanoate aminotransferase, sequence (P9WQ81 whole entry): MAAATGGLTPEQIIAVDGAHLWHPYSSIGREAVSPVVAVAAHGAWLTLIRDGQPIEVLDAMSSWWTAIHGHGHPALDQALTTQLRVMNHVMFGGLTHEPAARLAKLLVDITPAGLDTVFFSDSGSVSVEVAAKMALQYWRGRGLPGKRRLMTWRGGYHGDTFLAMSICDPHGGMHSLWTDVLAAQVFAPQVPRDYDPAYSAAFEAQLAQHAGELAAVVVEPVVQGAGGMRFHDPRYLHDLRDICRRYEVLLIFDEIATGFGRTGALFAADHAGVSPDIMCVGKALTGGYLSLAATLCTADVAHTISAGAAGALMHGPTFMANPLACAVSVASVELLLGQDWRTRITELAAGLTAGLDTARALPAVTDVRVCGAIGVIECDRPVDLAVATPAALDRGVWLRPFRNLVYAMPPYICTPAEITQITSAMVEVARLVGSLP
smiles,measurement,setting,value
COc1ccc(C(=O)Nc2ccc3ccccc3c2)cc1OC,IC50,[1],> 99 µM (inactive)
same,IC50,Caspase-3,14.9 µM (active)
same,IC50,[2],> 99 µM (inactive)
c1nc(NCc2ccc3c(c2)OCO3)c2cc(-c3ccoc3)ccc2n1,AC50,HEK293,2.17 µM (active)
same,IC50,Interleukin-8 [3],> 79 µM (inactive)
same,IC50,Interleukin-8 [4],1.66 µM (active)
O=C(CSc1ccc2nnc(-c3ccccn3)n2n1)Nc1nccs1,IC50,Nonstructural protein 1,43.5 µM (active)
same,AC50,[5],76.4 µM (active)
CCOC(=O)C1=C2NC(=O)c3ccccc3N2C(=O)C1,EC50,[6],89 µM (active)
same,EC50,[7],38.8 µM (active)
same,EC50,Beta-galactosidase,> 40 µM (inactive)
same,IC50,[8],9.25 µM (active)
O=C(Nc1nnc(-c2ccco2)o1)c1ccc(S(=O)(=O)N2CCOCC2)cc1,CC50,[9],> 40 µM (active)
same,AC50,[5],117 µM (active)
Cc1ccc(NC(=O)c2ccc(NCC3CCCO3)c([N+](=O)[O-])c2)cc1Cl (stereo unspecified),EC50,[10],> 99 µM (inactive)
same,EC50,[11],> 99 µM (inactive)
same,IC50,[12],5.2 µM (active)
same,AC50,Cytochrome P450 1A2,14.1 µM (inconclusive)
O=C(Nc1ccc2snnc2c1)N1CCOCC1,AC50,[13],8.02 µM (active)
O=c1oc2ccc3ccccc3c2cc1-c1nc2ccccc2o1,EC50,[6],> 300 µM (not active)
same,EC50,[7],> 300 µM (inconclusive)
same,EC50,[10],> 99 µM (inactive)
same,EC50,[11],> 99 µM (inactive)
O=[N+]([O-])c1ccc(C=CC=Cc2ccccc2)cc1,EC50,[10],> 99 µM (inactive)
same,EC50,[11],> 99 µM (inactive)
Fc1ccc2[nH]c3c(NCCN4CCOCC4)ncnc3c2c1,AC50,[13],14.9 µM (active)
